From ChEMBL document CHEMBL6092209, “New Discorhabdin D Analogues from Latrunculia spp. Sponges” (2024)
Activity calls are given as the source filed them. The calls are words filed in the database; no cut-off is given here.

Tests used:
[1] = system: Panel NCI-60 (60 carcinoma cell lines); experiment: Growth inhibition of human Panel NCI-60 (60 carcinoma cell lines) cells; format: functional
[2] = system: Panel NCI-60 (60 carcinoma cell lines); experiment: Growth inhibition of human Panel NCI-60 (60 carcinoma cell lines) cells at 10 uM; format: functional, cell-based

SMILES | GI50 [1] [µM] | Activity [2]
N[C@H](CS[C@H]1[C@H]2C(=O)C=C3S[C@H]4C[C@]31C1=C(N4)C(=O)c3[nH]cc4c3C1=[N+]2CC4)C(=O)O | > 10 | inactive
COC(=O)CN[C@H]1[C@H]2C(=O)C=C3S[C@H]4C[C@]31C1=C(N4)C(=O)c3[nH]cc4c3C1=[N+]2CC4 | 2.45 | 
O=C1C=C(S[C@H]2[C@H]3C(=O)C=C4S[C@H]5C[C@]42C2=C(N5)C(=O)c4[nH]cc5c4C2=[N+]3CC5)[C@]2(C=C1Br)CCNC1=C2C2=NCCc3c[nH]c(c32)C1=O | 4.8 | 
Cn1cnc(S[C@H]2[C@H]3C(=O)C=C4S[C@H]5C[C@]42C2=C(N5)C(=O)c4[nH]cc5c4C2=[N+]3CC5)c1C[C@H](N)C(=O)O | > 10 | 
COc1cccc2c1C(=O)c1c(O)c3c(c(O)c1C2=O)C[C@@](O)(C(=O)CO)C[C@@H]3O[C@H]1C[C@H](N)[C@H](O)[C@H](C)O1 [DOXORUBICIN] | 0.12 | 
O=C1C2=C3C4=[N+](CCc5c[nH]c1c54)[C@@H]1C(=O)C=C4S[C@@H](C[C@@]43[C@H]1O)N2 | 0.79 | 
N[C@@H](CS[C@H]1[C@H]2C(=O)C=C3S[C@H]4C[C@]31C1=C(N4)C(=O)c3[nH]cc4c3C1=[N+]2CC4)C(=O)NCC(=O)O | > 10 | inactive
N[C@@H](CCC(=O)N[C@@H](CS[C@H]1[C@H]2C(=O)C=C3S[C@H]4C[C@]31C1=C(N4)C(=O)c3[nH]cc4c3C1=[N+]2CC4)C(=O)NCC(=O)O)C(=O)O | > 10 | inactive
O=C(O)CN[C@H]1[C@H]2C(=O)C=C3S[C@H]4C[C@]31C1=C(N4)C(=O)c3[nH]cc4c3C1=[N+]2CC4 | 16.9 | 
N[C@@H](CS[C@H]1[C@H]2C(=O)C=C3S[C@H]4C[C@]31C1=C(N4)C(=O)c3[nH]cc4c3C1=[N+]2CC4)C(=O)O | > 10 | inactive
O=C1C2=C3C4=[N+](CCc5c[nH]c1c54)[C@H]1C[C@@]34C[C@@H](N2)SC4=CC1=O | 0.8 | 
